Source: US20250034185A1 (priority 2021, published 2025)

Experiments:
[1] = Pharmacokinetic study 4: SP isomer, RP isomer and D-amino acid prodrug, IV and PO, rats; type: in vivo; conditions: rat; for conversion to PLP in the plasma: IV (and PO)
From the text: The goal of the study was to compare the pharmacokinetic (PK) profiles of the S-isomer (16i) and the R-isomer (16iii) at the phosphorus center, and to assess the effect of using the D-amino acid (16i with SP and RP isomers) on PK profile.
In order to isolate the effects of the administered agents on PL and PLP levels, the basal levels of both PL and PLP subtracted from the measured concentrations. Baseline subtraction was accomplished by subtracting pre-dose concentrations of either PL or PLP from the subsequent values in the time course.
Formulation—Prodrugs 16i (SP isomer), 16i (RP isomer) and 16i′ (16i with D-amino acid racemate) were formulated in phosphate buffered saline (PBS) as a homogenous solution on the day of dosing.
(§1) Animals and group—19 CD ♂ rats with an approx. weigh of ˜250 g were used. Animals were split into 6 groups+1 extra (n=3 for each group). Animals were allowed a 5-day acclimatization period in animal facility. The animal room environment was controlled (temperature 22 f 0.2° C.; relative humidity 55 f 25%; 12 hours light/dark cycle, and 12 air changes per hour). A standard certified commercial rodent chow was provided to the animals ad libitum. Procedures involving the care and use of animals in this study were reviewed and approved by the Institutional Animal Care and Use Committee (IACUC) prior to conduct. One day prior to dosing on D-1, Rats were divided in 6 groups (Table 1). Animals were identified and bled for pre-dose blood. Rats in Group 4, 5 and 6 were fasted overnight (12-14 hours) with access of water.
On day 0, animals were weighted, and dosed by IV injection or by oral gavage as described in Table 10. Food tray were returned to Group 4, 5 and 6 two hours post dosing.
(§2) Blood was collected at indicated time points below for all groups: Pre-dose, 5′, 15′, 30′, 1 h, 2 h, 4 h, 6 h, 8 h, 24 h.
(§3) About 150 μL of blood was collected at indicated time points below using K2EDTA tubes. Blood was kept on ice until centrifugation at 4° C. at 6000 RCF for 10 min. Plasma was collected and kept on dry ice until transferred at −80° C.

[2] = Single ascending dose study of P5P analog 16, oral, rats; type: in vivo; conditions: rat
Description: Single ascending dose studies were carried out (Example 97: P5P analog 16i: single ascending dose study) to assess the maximum tolerability of a P5P analog (compound of formula 16i) in rats under 4 different doses under one single administration via Per Os (P.O.—oral) route, and to inform the linearity of pharmacokinetics (PK) with multiple dosing.
(§4) In order to isolate the effects of the administered compound of formula 16i on pyridoxine (PL) and P5P (PLP) levels, the basal levels of both PL and P5P were subtracted from the measured concentrations. Baseline subtraction was accomplished by subtracting pre-dose concentrations of either PL or P5P from the subsequent values in the time course.
Formulation—P5P analog 16 was formulated in 1% methylcellulose in water on the day of dosing.
as §1, with “group—17” for “group—19”, “4” for “6”, “(n=4” for “(n=3”, “6).” for “1).”, “all groups” for “Group 4, 5 and 6”
On day 0, animals in groups 1-2-3 were weighed, and dosed by oral gavage as described in Table 6. Each remaining dosing solutions were stirred (or slightly vortexed), a 50 ul sample were collected and placed in separate tube and both vials immediately frozen on dry ice. Food tray were returned to animals two hours post dosing.
Cage-side observation were done upon dosing, at the end of day, and 24 hrs post dosing (record adverse effect if observed). Animal were weighed again at 24 hrs post dosing.
Blood was collected at indicated time points for all groups at: Pre-dose, 15′, 30′, 1 h, 2 h, 4 h, 6 h, 8 h, 24 h.
as §3

[3] = Pharmacokinetic study 1: P5P and P5P analog 16, IV and PO, rats; type: in vivo; conditions: dosed orally, rat
Description: Pharmacokinetic study 1 was carried out (see Example 98: P5P analog 16i: Pharmacokinetic study 1) to assess if P5P analog 16i was able to be converted to P5P and increase plasma P5P, to assess if P5P analog 16i was orally available, and to compare the ability of PO P5P analog 16i and PO P5P to increase plasma P5P.
as §4, with “P5P analog” for “compound of formula”
Formulation—Both P5P (pyridoxal-5-phosphate) and P5P analog 16 were formulated in phosphate buffered saline (PBS) as homogenous solutions on the day of dosing.
Animals and group—13 CD ♂ rats with an approx. weigh of ˜250 g were used. Animals were split into 4 groups+1 extra (n=3 for each group). Animals were allowed a 5-day acclimatization period in animal facility. The animal room environment was controlled (temperature 22 f 0.2° C.; relative humidity 55 f 25%; 12 hours light/dark cycle, and 12 air changes per hour). A standard certified commercial rodent chow was provided to the animals ad libitum. Procedures involving the care and use of animals in this study were reviewed and approved by the Institutional Animal Care and Use Committee (IACUC) prior to conduct. One day prior to dosing on D-1, Rats were divided in 4 groups (Table 7). Rats in Group 3 and 4 were fasted overnight (12-14 hours) with access to water.
On day 0, animals were identified, weighted, and dosed by intravenous (IV) injection or oral gavage (PO) as described in Table 7. Food tray were returned to Group 3 and 4, 2 hrs post dosing.
as §2, §3

[4] = system: plasma enzymes; conditions: Sprague Dawley, rat

SMILES | PLP exposure, racemic D-amino acid prodrug compared with L-amino acid prodrug [1] | conversion to PLP in the plasma [1] | T1/2 of PL and PLP as dose was increased ([2]; PO 10-300 mg/kg) | plasma PL and P5P concentrations with increasing dose ([2]; PO 10-300 mg/kg) | dose linearity of plasma PL and PLP (Cmax and AUC) ([2]; PO) | signs of toxicity ([2]; highest dose group 300 mg/kg PO) | adverse reactions / clinical signs ([2]; single PO dose 10, 30, 100, 300 mg/kg, observed to 24 hrs) | oral availability of the prodrug (crosses gastrointestinal wall, detectable in circulation) [3] | relative P5P formed [4] [%]
Cc1ncc(COP(=O)(N[C@H](C)C(=O)OC(C)C)Oc2ccccc2)c(C=O)c1O (mixture of isomers) [Compound 16iii, (2R)-Isopropyl 2-(((4-formyl-5-hydroxy-6-methylpyridin-3-yl)methoxy)(phenoxy)phosphorylamino)propanoate] | reduced PLP exposure | did not convert well to PLP |  |  |  |  |  |  | 
Cc1ncc(CO[P@@](=O)(N[C@@H](C)C(=O)OC(C)C)Oc2ccccc2)c(C=O)c1O [Compound 16i, (S)-Isopropyl 2-((S)-((4-formyl-5-hydroxy-6-methylpyridin-3-yl)methoxy)(phenoxy)phosphorylamino)propanoate] |  | readily converted to PLP | increase | clear dose-dependent increase | dose linearity up to 300 mg/kg | did not show any signs of toxicity | no clinical signs were observed | orally bioavailable | 100.0
